Patent publication US9561228B2 (Celgene Avilomics Research, Inc., priority 2013, dated 2017)

Tests used:
[1] = test system: ERK1/2 phosphorylation of p90RSK in HT29 cells; experiment: pRSK MSD Assay in HT29 cells; assay type: cell-based; conditions: Homo sapiens, HT-29, read-out: ERK1/ERK2 PRSK MSD HT29 EC50
Method in brief: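 Phospho-RSK level, read by electrochemiluminescence on RSK-antibody-coated MSD plates with a phospho-RSK/Sulfo-tag detection pair, reports cellular ERK1/2 activity. HT29 cells, kept overnight in 0.1% FBS medium, were exposed to compound for 120 min at 37° C before lysis.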

[2] = molecular target: T1, MEK1 activated ERK1 (Homo sapiens, UniProt P27361); experiment: Omnia continuous-read kinase assay for potency against MEK1 activated ERK1; assay type: biochemical; conditions: MEK1 activated ERK1, ATP at KM; read-out: ERK1 Omnia WT ATP KM IC50
T1 construct: purchased Millipore (Billerica, Mass.) 14-439-K
From the text: Omnia Assay Protocol for Potency Assessment Against MEK1 Activated ERK1:
The protocol below describes continuous-read kinase assays to measure potency of compounds against activated ERK1 enzyme. The mechanics of the assay platform are best described by the vendor (Invitrogen, Carlsbad, Calif.) on their website at the following URL: invitrogen.com/site/us/en/home.html.
Briefly, a 1.25× stock of ERK1 enzyme (14-439-K) from Millipore (Billerica, Mass.), 5×ATP (AS001A) and ST17-Sox conjugated peptide substrate (KNZ1171C) were prepared in 1× kinase reaction buffer consisting of 20 mM Tris, pH 7.5, 5 mM MgCl2, 1 mM EGTA, 5 mM β-glycerophosphate, 5% glycerol (10× stock, KB002A) and 0.2 mM DTT. 10 μL of ATP/ST17-sox peptide substrate mix was combined with 0.5 μL volume of 100% DMSO and serially diluted compounds were prepared in 100% DMSO in a Corning (#3574) 384-well, white, non-binding surface microtiter plate (Corning, N.Y.). Kinase reactions were started with the addition of 40 μL of ERK1 solution and monitored every 71 seconds for 30-240 minutes at λex360/λem485 in a Synergy plate reader from BioTek (Winooski, Vt.). At the conclusion of each assay, progress curves from each well were examined for linear reaction kinetics and fit statistics (R^2, 95% confidence interval, absolute sum of squares). Initial velocity (0 minutes to ˜30+ minutes) from each reaction was determined from the slope of a plot of relative fluorescence units vs time (minutes or seconds) and then plotted against inhibitor concentration to estimate ^AppIC50 from log [Inhibitor] vs Response, Variable Slope model in GraphPad Prism from GraphPad Software (San Diego, Calif.).
[Reagent] used in optimized protocol:
[ERK1]=4 nM, [ATP]=50 μM, [ST17-Sox]=10 μM (ATP ^appKM 48 μM)
The results of this assay show the degree of inhibition of ERK activity, which is a direct measurement of inhibition of ERK activity. Results from this assay are reported in Table A under the column “ERK1 Omnia WT ATP KM IC50 (nM).”

T1 sequence (P27361 whole entry): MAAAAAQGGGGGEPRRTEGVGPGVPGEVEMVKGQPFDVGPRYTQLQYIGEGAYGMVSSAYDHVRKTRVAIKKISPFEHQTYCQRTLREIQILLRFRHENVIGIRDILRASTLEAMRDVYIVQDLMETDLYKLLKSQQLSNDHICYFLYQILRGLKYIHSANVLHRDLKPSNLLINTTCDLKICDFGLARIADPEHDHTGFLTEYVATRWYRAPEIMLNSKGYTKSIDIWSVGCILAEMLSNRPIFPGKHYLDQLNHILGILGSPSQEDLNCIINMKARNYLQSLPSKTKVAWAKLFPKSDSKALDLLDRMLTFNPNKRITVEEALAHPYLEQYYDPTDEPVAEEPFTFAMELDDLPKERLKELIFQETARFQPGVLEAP

Q: What does the source list for `C=CC(=O)N(C)c1ccccc1Nc1nc(N[C@@H]2CCC[C@H](C(=O)NOC)C2)ncc1Cl` (racemic) [Compound I-106, Rac-cis-3-((5-chloro-4-((2-(N-methylacrylamido)phenyl)amino)pyrimidin-2-yl)amino)-N-methoxycyclohexanecarboxamide]?
A: EC50 [1]: > 1000 nM; IC50 [2]: > 1000 nM

Q: Which results are given for `C#CC(=O)N[C@@H]1CCCC[C@H]1Nc1nc(N[C@H]2CCCN(C(=O)CO)C2)ncc1C(F)(F)F` [Compound I-34, N-((1R,2R)-2-((2-(((S)-1-(2-Hydroxyacetyl)piperidin-3-yl)amino)-5-(trifluoromethyl)pyrimidin-4-yl)amino)cyclohexyl)propiolamide]?
A: EC50 [1]: > 1000 nM; IC50 [2]: 101 to 500 nM

Q: `C=CC(=O)N[C@H]1CCCC[C@@H]1Nc1nc(N[C@H]2CCCN(C(=O)CO)C2)ncc1Cl` (racemic) [Compound I-141, Rac-N-(2-((5-chloro-2-(((R)-1-(2-hydroxyacetyl)piperidin-3-yl)amino)pyrimidin-4-yl)amino)-trans-cyclohexyl)acrylamide] was tested. Which EC50 [1] did it give?
A: 501 to 999 nM

Q: What about the IC50 [2] of the same compound?
A: 101 to 500 nM

Q: Which EC50 [1] does the source give for `C=CC(=O)Nc1ccccc1Nc1nc(Nc2cc(C(=O)O)ccc2C)ncc1Cl` [Compound I-225, 3-((4-((2-acrylamidophenyl)amino)-5-chloropyrimidin-2-yl)amino)-4-methylbenzoic acid] here?
A: > 1000 nM

Q: And the IC50 [2]?
A: 101 to 500 nM

Q: Which results are given for `C=CC(=O)Nc1ccccc1Nc1nc(Nc2cc(C(=O)NOCCO)ccc2C#N)ncc1C(F)(F)F` [Compound I-75, 3-((4-((2-Acrylamidophenyl)amino)-5-(trifluoromethyl)pyrimidin-2-yl)amino)-4-cyano-N-(2-hydroxyethoxyl)benzamide]?
A: EC50 [1]: > 1000 nM; IC50 [2]: 101 to 500 nM

Q: For `C=C(C)S(=O)(=O)Nc1cc(F)ccc1Nc1nc(Nc2cc(C(N)=O)ccc2C)ncc1C(F)(F)F` [Compound I-87, 3-((4-((4-Fluoro-2-(1-methylvinylsulfonamido)phenyl)amino)-5-(trifluoromethyl)pyrimidin-2-yl)amino)-4-methylbenzamide], which EC50 [1] is on record?
A: > 1000 nM

Q: What about the IC50 [2] of the same compound?
A: 101 to 500 nM

Q: How did the EC50 [1] turn out when `C=CC(=O)Nc1ccccc1Nc1nc(Nc2ccc(F)cc2OC)ncc1Cl` [Compound I-210, N-(2-((5-chloro-2-((4-fluoro-2-methoxyphenyl)amino)pyrimidin-4-yl)amino)phenyl)acrylamide] was run?
A: 101 to 500 nM

Q: And the IC50 [2]?
A: 101 to 500 nM

Q: How did the EC50 [1] turn out when `C=C(C)C(=O)Nc1cc(F)ccc1Nc1nc(N[C@@H]2CCC[C@H](C(N)=O)C2)ncc1Cl` (racemic) [Compound I-114, Rac-cis-3-((5-chloro-4-((4-fluoro-2-methacrylamidophenyl)amino)pyrimidin-2-yl)amino)cyclohexanecarboxamide] was run?
A: > 1000 nM

Q: What about the IC50 [2] of the same compound?
A: > 1000 nM

Q: How did the EC50 [1] turn out when `C/C=C/C(=O)Nc1cc(F)ccc1Nc1nc(N[C@@H]2CCC[C@H](C(N)=O)C2)ncc1C(F)(F)F` (racemic) [Compound I-6, Rac-(E)-3-((4-((2-(but-2-enamido)-4-fluorophenyl)amino)-5-(trifluoromethyl)pyrimidin-2-yl)amino)-cis-cyclohexanecarboxamide] was run?
A: > 1000 nM

Q: And the IC50 [2]?
A: > 1000 nM

Q: What does the source list for `C=CC(=O)Nc1cc(F)ccc1Nc1nc(Nc2cc(C(N)=O)ccc2C#N)ncc1Cl` [Compound I-207, 3-(4-(2-acrylamido-4-fluorophenylamino)-5-chloropyrimidin-2-ylamino)-4-cyanobenzamide]?
A: EC50 [1]: > 1000 nM; IC50 [2]: 101 to 500 nM

Q: What does the source list for `C=CC(=O)Nc1ccccc1Nc1nc(Nc2cc(NC(=O)CCCC(=O)NCCCOCCOCCOCCCNC(=O)CCCC[C@@H]3SC[C@@H]4NC(=O)N[C@@H]43)cc(C(N)=O)c2)ncc1Cl` [Compound I-304, N^1-(3-((4-((2-acrylamidophenyl)amino)-5-chloropyrimidin-2-yl)amino)-5-carbamoylphenyl)-N^5-(15-oxo-19-((3aS,4S,6aR)-2-oxohexahydro-1H-thieno[3,4-d]imidazol-4-yl)-4,7,10-trioxa-14-azanonadecyl)glutaramide]?
A: EC50 [1]: > 1000 nM; IC50 [2]: 101 to 500 nM

Q: How did the EC50 [1] turn out when `C=CC(=O)Nc1ccccc1Nc1nc(Nc2cc(C(N)=O)c(OCCCNC(=O)C#CC)cc2C)ncc1Cl` [Compound I-305, 5-((4-((2-acrylamidophenyl)amino)-5-chloropyrimidin-2-yl)amino)-2-(3-(but-2-ynamido)propoxy)-4-methylbenzamide] was run?
A: > 1000 nM

Q: What about the IC50 [2] of the same compound?
A: 101 to 500 nM

Q: `O=C(CCl)Nc1ccccc1Nc1nc(N[C@H]2CCCN(C(=O)CCl)C2)ncc1C(F)(F)F` [Compound I-31, (S)-2-Chloro-N-(2-((2-((1-(2-chloroacetyl)piperidin-3-yl)amino)-5-(trifluoromethyl)pyrimidin-4-yl)amino)phenyl)acetamide] was tested. Which EC50 [1] did it give?
A: > 1000 nM

Q: What about the IC50 [2] of the same compound?
A: 501 to 999 nM

Q: Which results are given for `CC(=O)N1CCC[C@H](Nc2ncc(C(F)(F)F)c(Nc3ccccc3NC(=O)CCl)n2)C1` [Compound I-30, (S)—N-(2-((2-((1-Acetylpiperidin-3-yl)amino)-5-(trifluoromethyl)pyrimidin-4-yl)amino)phenyl)-2-chloroacetamide]?
A: EC50 [1]: > 1000 nM; IC50 [2]: 101 to 500 nM

Q: How did the EC50 [1] turn out when `C=CC(=O)Nc1ccccc1Nc1nc(N[C@@H]2CCC[C@H](C(=O)O)C2)ncc1C(F)(F)F` (racemic) [Compound I-14, Rac-3-((4-((2-acrylamidophenyl)amino)-5-(trifluoromethyl)pyrimidin-2-yl)amino)-cis-cyclohexanecarboxylic acid] was run?
A: > 1000 nM

Q: What about the IC50 [2] of the same compound?
A: 101 to 500 nM

Q: For `C=CC(=O)Nc1ccccc1Nc1nc(Nc2cncc(C(N)=O)c2)ncc1C(F)(F)F` [Compound I-63, 5-((4-((2-Acrylamidophenyl)amino)-5-(trifluoromethyl)pyrimidin-2-yl)amino)nicotinamide], which EC50 [1] is on record?
A: > 1000 nM

Q: And the IC50 [2]?
A: 101 to 500 nM

Q: With `C=CC(=O)N(C)c1ccccc1Nc1nc(Nc2cc(C(N)=O)ccc2C#N)ncc1Cl` [Compound I-196, 3-((5-chloro-4-((2-(N-methylacrylamido)phenyl)amino)pyrimidin-2-yl)amino)-4-cyanobenzamide] as the compound, how does the EC50 [1] read?
A: > 1000 nM

Q: And the IC50 [2]?
A: 501 to 999 nM

Q: `C=CC(=O)Nc1ccccc1Nc1nc(Nc2cc(C(=O)NOCCO)ccc2OC)ncc1Cl` [Compound I-194, 3-((4-((2-acrylamidophenyl)amino)-5-chloropyrimidin-2-yl)amino)-N-(2-hydroxyethoxy)-4-methoxybenzamide] was tested. Which EC50 [1] did it give?
A: 501 to 999 nM

Q: What about the IC50 [2] of the same compound?
A: 101 to 500 nM

Q: For `C=CC(=O)Nc1ccccc1Nc1nc(N[C@H]2CCCN(C(=O)[C@H](C)O)C2)ncc1Cl` [Compound I-138, N-(2-((5-chloro-2-(((S)-1-((S)-2-hydroxypropanoyl)piperidin-3-yl)amino)pyrimidin-4-yl)amino)phenyl)acrylamide], which EC50 [1] is on record?
A: > 1000 nM

Q: What about the IC50 [2] of the same compound?
A: 501 to 999 nM

Q: What does the source list for `C=CC(=O)Nc1ccccc1Nc1nc(Nc2cc(C(=O)NOC)ccc2OC)ncc1Cl` [Compound I-187, 3-((4-((2-acrylamidophenyl)amino)-5-chloropyrimidin-2-yl)amino)-N,4-dimethoxybenzamide]?
A: EC50 [1]: 101 to 500 nM; IC50 [2]: 101 to 500 nM

Q: For `CC(=O)N1CCC[C@H](Nc2ncc(C(F)(F)F)c(NC3C4C=CC(C4)C3C(=O)NC#N)n2)C1` (mixture of isomers) [Compound I-25, Rac-3-((2-(((S)-1-acetylpiperidin-3-yl)amino)-5-(trifluoromethyl)pyrimidin-4-yl)-cis-amino)-N-cyanobicyclo[2.2.1]hept-5-ene-2-carboxamide], which EC50 [1] is on record?
A: > 1000 nM

Q: What about the IC50 [2] of the same compound?
A: > 1000 nM

Q: For `C=CC(=O)N[C@@H]1CCCC[C@H]1Nc1nc(Nc2cc(C(N)=O)ccc2C)ncc1Cl` (racemic) [Compound I-226, Rac-trans-3-((4-((2-acrylamidocyclohexyl)amino)-5-chloropyrimidin-2-yl)amino)-4-methylbenzamide], which EC50 [1] is on record?
A: 501 to 999 nM

Q: And the IC50 [2]?
A: 501 to 999 nM

Q: What does the source list for `C=CC(=O)N[C@@H]1CCCC[C@H]1Nc1nc(Nc2cc(C(=O)NOC)ccc2C)ncc1Cl` (racemic) [Compound I-188, Rac-trans-3-((4-((2-acrylamidocyclohexyl)amino)-5-chloropyrimidin-2-yl)amino)-N-methoxy-4-methylbenzamide]?
A: EC50 [1]: > 1000 nM; IC50 [2]: > 1000 nM

Q: `C#CC(=O)NCCCOc1cc(C)c(Nc2ncc(Cl)c(Nc3ccccc3NC(=O)C=C)n2)cc1C(N)=O` [Compound I-227, 5-((4-((2-acrylamidophenyl)amino)-5-chloropyrimidin-2-yl)amino)-4-methyl-2-(3-propiolamidopropoxy)benzamide] was tested. Which EC50 [1] did it give?
A: > 1000 nM

Q: What about the IC50 [2] of the same compound?
A: 101 to 500 nM
